Results from patent US10131652B2, “Pyrimidinyloxy benzene derivatives as herbicides” (E. I. DU PONT DE NEMOURS AND COMPANY, priority 2014, dated 2018).

Legend:
Format in all cases: in vivo
[1] = tested on: velvetleaf (Abutilon theophrasti); test: Test D pre-/postemergence plant response; details: Postemergence; for Plant response rating, Velvetleaf: 125 g ai/ha
Outline: (§1)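 Seeds were planted in a loam and sand blend and sprayed preemergence. In parallel, seedlings grown in peat moss/vermiculite medium were sprayed postemergence at 2 to 18 cm height. Both used a surfactant-containing non-phytotoxic solvent. Greenhouse ratings at 13 to 15 days used a 0–100 control scale.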

[2] = tested on: johnsongrass (Sorghum halepense); test: Test D pre-/postemergence plant response; details: Postemergence; for Johnsongrass plant response rating: 31 g ai/ha, scale 0 to 100 (0 no effect, 100 complete control); for Plant response rating, Johnsongrass: scale 0 to 100, 0 no effect, 100 complete control
Outline: as §1

[3] = tested on: winter wheat (Triticum aestivum); test: Test D pre-/postemergence plant response; details: Postemergence; for Plant response rating, Wheat: 125 g ai/ha
Outline: as §1

[4] = tested on: large (Lg) crabgrass (Digitaria sanguinalis); test: Test D pre-/postemergence plant response; details: Postemergence; for Crabgrass, Large plant response rating: 31 g ai/ha, scale 0 to 100 (0 no effect, 100 complete control); for Plant response rating, Crabgrass, Large: scale 0 to 100, 0 no effect, 100 complete control
Outline: as §1

[5] = tested on: oilseed rape (Brassica napus); test: Test D pre-/postemergence plant response; details: Postemergence; for Plant response rating, Oilseed Rape: 125 g ai/ha
Outline: as §1

[6] = tested on: soybean (Glycine max); test: Test D pre-/postemergence plant response; details: Postemergence; for Plant response rating, Soybean: 125 g ai/ha
Outline: as §1

[7] = tested on: yellow nutsedge (Cyperus esculentus); test: Test D pre-/postemergence plant response; details: Postemergence; for Plant response rating, Nutsedge, Yellow: 125 g ai/ha
Outline: as §1

[8] = tested on: ducksalad (Heteranthera limosa); test: Test C flooded paddy test plant response; details: Flood, 250 g ai/ha; scale of 0 to 100 where 0 is no effect and 100 is complete control; 13 to 15 days
Outline: (§2)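 Visual injury ratings (0, no effect; 100, complete control) were assigned after 13 to 15 days in a greenhouse, comparing treated plants with controls. Compounds had been added straight into paddy water over 2-leaf-stage plants flooded to 3 cm.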

[9] = tested on: small-flower umbrella sedge (Cyperus difformis); test: Test C flooded paddy test plant response; details: Flood, 250 g ai/ha; scale of 0 to 100 where 0 is no effect and 100 is complete control; 13 to 15 days
Outline: as §2

[10] = tested on: rice (Oryza sativa); test: Test C flooded paddy test plant response; details: Flood, 250 g ai/ha; scale of 0 to 100 where 0 is no effect and 100 is complete control; 13 to 15 days
Outline: as §2

[11] = tested on: barnyardgrass (Echinochloa crus-galli); test: Test C flooded paddy test plant response; details: Flood, 250 g ai/ha; scale of 0 to 100 where 0 is no effect and 100 is complete control; 13 to 15 days
Outline: as §2

[12] = tested on: kochia (Kochia scoparia); test: Test D postemergence plant response; details: for Kochia plant response rating: 31 g ai/ha, scale 0 to 100 (0 no effect, 100 complete control); for Plant response rating, Kochia: scale 0 to 100, 0 no effect, 100 complete control
Outline: (§3)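 The formulated test chemicals were applied over the foliage of young potted plants (2 to 18 cm tall), which were then held under greenhouse conditions. Between days 13 and 15 each species was rated by eye versus controls, from 0 for no effect up to 100 for complete control.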

[13] = tested on: wild oat (Avena fatua); test: Test D postemergence plant response; details: for Plant response rating, Oat, Wild: 125 g ai/ha
Outline: as §3

[14] = tested on: chickweed (common chickweed, Stellaria media); test: Test D postemergence plant response; details: for Chickweed plant response rating: 31 g ai/ha, scale 0 to 100 (0 no effect, 100 complete control); for Plant response rating, Chickweed: scale 0 to 100, 0 no effect, 100 complete control
Outline: as §3

[15] = 31 g ai/ha, scale 0 to 100 (0 no effect, 100 complete control)
[16] = 62 g ai/ha, scale 0 to 100, 0 no effect, 100 complete control
[17] = scale 0 to 100, 0 no effect, 100 complete control

## FC(Cl)(Cl)c1cc(-c2ccccc2Oc2ncc(Cl)cn2)no1 [Compound 198]
[1]; 16 g ai/ha
  Plant response rating (scale 0 to 100), Velvetleaf: 50
[1]; [15]
  Velvetleaf plant response rating: 45
[1]; [16]
  Velvetleaf plant response rating: 55
[1]; [17]
  Plant response rating, Velvetleaf: 55
[2]; 16 g ai/ha
  Plant response rating (scale 0 to 100), Johnsongrass: 5
[2]
  Johnsongrass plant response rating: 20
[2]; 62 g ai/ha
  Plant response rating, Johnsongrass: 35
[2]; 125 g ai/ha
  Plant response rating, Johnsongrass: 35
[3]; 16 g ai/ha
  Plant response rating (scale 0 to 100), Wheat: 0
[3]; [15]
  Wheat plant response rating: 0
[3]; [16]
  Wheat plant response rating: 5
[3]; [17]
  Plant response rating, Wheat: 5
[4]; 16 g ai/ha
  Plant response rating (scale 0 to 100), Crabgrass, Large: 10
[4]
  Crabgrass, Large plant response rating: 15
[4]; 62 g ai/ha
  Plant response rating, Crabgrass, Large: 20
[4]; 125 g ai/ha
  Plant response rating, Crabgrass, Large: 30
[5]; 16 g ai/ha
  Plant response rating (scale 0 to 100), Oilseed Rape: 30
[5]; [15]
  Oilseed Rape plant response rating: 50
[5]; [16]
  Oilseed Rape plant response rating: 60
[5]; [17]
  Plant response rating, Oilseed Rape: 90
[6]; 16 g ai/ha
  Plant response rating (scale 0 to 100), Soybean: 10
[6]; [15]
  Soybean plant response rating: 25
[6]; [16]
  Soybean plant response rating: 30
[6]; [17]
  Plant response rating, Soybean: 60
[7]; 16 g ai/ha
  Plant response rating (scale 0 to 100), Nutsedge, Yellow: 5
[7]; [15]
  Nutsedge, Yellow plant response rating: 5
[7]; [16]
  Nutsedge, Yellow plant response rating: 15
[7]; [17]
  Plant response rating, Nutsedge, Yellow: 10
[8]
  Ducksalad plant response rating: 85
[9]
  Sedge, Umbrella plant response rating: 100
[10]
  Rice plant response rating: 25
[11]
  Barnyardgrass plant response rating: 40
[12]; 16 g ai/ha
  Plant response rating (scale 0 to 100), Kochia: 60
[12]
  Kochia plant response rating: 95
[12]; 62 g ai/ha
  Plant response rating, Kochia: 100
[12]; 125 g ai/ha
  Plant response rating, Kochia: 100
[13]; 16 g ai/ha
  Plant response rating (scale 0 to 100), Oat, Wild: 5
[13]; [15]
  Oat, Wild plant response rating: 5
[13]; [16]
  Oat, Wild plant response rating: 10
[13]; [17]
  Plant response rating, Oat, Wild: 10
[14]; 16 g ai/ha
  Plant response rating (scale 0 to 100), Chickweed: 5
[14]
  Chickweed plant response rating: 60
[14]; 62 g ai/ha
  Plant response rating, Chickweed: 60
[14]; 125 g ai/ha
  Plant response rating, Chickweed: 95

## CC(F)(F)c1cc(-c2ccccc2Oc2ncc(Cl)cn2)no1 [Compound 220]
[1]; 2 g ai/ha
  Plant response rating (scale 0 to 100), Velvetleaf: 5
[1]; 4 g ai/ha
  Plant response rating (scale 0 to 100), Velvetleaf: 15
[1]; 8 g ai/ha
  Plant response rating (scale 0 to 100), Velvetleaf: 10
[1]; 16 g ai/ha
  Plant response rating (scale 0 to 100), Velvetleaf: 25
[2]; 2 g ai/ha
  Plant response rating (scale 0 to 100), Johnsongrass: 0
[2]; 4 g ai/ha
  Plant response rating (scale 0 to 100), Johnsongrass: 0
[2]; 8 g ai/ha
  Plant response rating (scale 0 to 100), Johnsongrass: 0
[2]; 16 g ai/ha
  Plant response rating (scale 0 to 100), Johnsongrass: 5
[3]; 2 g ai/ha
  Plant response rating (scale 0 to 100), Wheat: 0
[3]; 4 g ai/ha
  Plant response rating (scale 0 to 100), Wheat: 0
[3]; 8 g ai/ha
  Plant response rating (scale 0 to 100), Wheat: 0
[3]; 16 g ai/ha
  Plant response rating (scale 0 to 100), Wheat: 0
[4]; 2 g ai/ha
  Plant response rating (scale 0 to 100), Crabgrass, Large: 5
[4]; 4 g ai/ha
  Plant response rating (scale 0 to 100), Crabgrass, Large: 5
[4]; 8 g ai/ha
  Plant response rating (scale 0 to 100), Crabgrass, Large: 5
[4]; 16 g ai/ha
  Plant response rating (scale 0 to 100), Crabgrass, Large: 15
[5]; 2 g ai/ha
  Plant response rating (scale 0 to 100), Oilseed Rape: 0
[5]; 4 g ai/ha
  Plant response rating (scale 0 to 100), Oilseed Rape: 5
[5]; 8 g ai/ha
  Plant response rating (scale 0 to 100), Oilseed Rape: 5
[5]; 16 g ai/ha
  Plant response rating (scale 0 to 100), Oilseed Rape: 10
[6]; 2 g ai/ha
  Plant response rating (scale 0 to 100), Soybean: 15
[6]; 4 g ai/ha
  Plant response rating (scale 0 to 100), Soybean: 10
[6]; 8 g ai/ha
  Plant response rating (scale 0 to 100), Soybean: 10
[6]; 16 g ai/ha
  Plant response rating (scale 0 to 100), Soybean: 10
[7]; 2 g ai/ha
  Plant response rating (scale 0 to 100), Nutsedge, Yellow: 0
[7]; 4 g ai/ha
  Plant response rating (scale 0 to 100), Nutsedge, Yellow: 0
[7]; 8 g ai/ha
  Plant response rating (scale 0 to 100), Nutsedge, Yellow: 0
[7]; 16 g ai/ha
  Plant response rating (scale 0 to 100), Nutsedge, Yellow: 5
[8]
  Ducksalad plant response rating: 80
[9]
  Sedge, Umbrella plant response rating: 75
[10]
  Rice plant response rating: 0
[11]
  Barnyardgrass plant response rating: 20
[12]; 2 g ai/ha
  Plant response rating (scale 0 to 100), Kochia: 20
[12]; 4 g ai/ha
  Plant response rating (scale 0 to 100), Kochia: 50
[12]; 8 g ai/ha
  Plant response rating (scale 0 to 100), Kochia: 100
[12]; 16 g ai/ha
  Plant response rating (scale 0 to 100), Kochia: 100
[13]; 2 g ai/ha
  Plant response rating (scale 0 to 100), Oat, Wild: 0
[13]; 4 g ai/ha
  Plant response rating (scale 0 to 100), Oat, Wild: 0
[13]; 8 g ai/ha
  Plant response rating (scale 0 to 100), Oat, Wild: 0
[13]; 16 g ai/ha
  Plant response rating (scale 0 to 100), Oat, Wild: 5
[14]; 2 g ai/ha
  Plant response rating (scale 0 to 100), Chickweed: 5
[14]; 4 g ai/ha
  Plant response rating (scale 0 to 100), Chickweed: 10
[14]; 8 g ai/ha
  Plant response rating (scale 0 to 100), Chickweed: 40
[14]; 16 g ai/ha
  Plant response rating (scale 0 to 100), Chickweed: 40

## CC(F)(F)c1cc(-c2ccccc2Oc2ncc(Cl)cn2)on1 [Compound 178]
[1]; 16 g ai/ha
  Plant response rating (scale 0 to 100), Velvetleaf: 60
[1]; [15]
  Velvetleaf plant response rating: 40
[1]; [16]
  Velvetleaf plant response rating: 60
[1]; [17]
  Plant response rating, Velvetleaf: 75
[2]; 16 g ai/ha
  Plant response rating (scale 0 to 100), Johnsongrass: 10
[2]
  Johnsongrass plant response rating: 10
[2]; 62 g ai/ha
  Plant response rating, Johnsongrass: 15
[2]; 125 g ai/ha
  Plant response rating, Johnsongrass: 10
[3]; 16 g ai/ha
  Plant response rating (scale 0 to 100), Wheat: 0
[3]; [15]
  Wheat plant response rating: 5
[3]; [16]
  Wheat plant response rating: 5
[3]; [17]
  Plant response rating, Wheat: 10
[4]; 16 g ai/ha
  Plant response rating (scale 0 to 100), Crabgrass, Large: 5
[4]
  Crabgrass, Large plant response rating: 10
[4]; 62 g ai/ha
  Plant response rating, Crabgrass, Large: 20
[4]; 125 g ai/ha
  Plant response rating, Crabgrass, Large: 15
[5]; 16 g ai/ha
  Plant response rating (scale 0 to 100), Oilseed Rape: 35
[5]; [15]
  Oilseed Rape plant response rating: 80
[5]; [16]
  Oilseed Rape plant response rating: 80
[5]; [17]
  Plant response rating, Oilseed Rape: 95
[6]; 16 g ai/ha
  Plant response rating (scale 0 to 100), Soybean: 15
[6]; [15]
  Soybean plant response rating: 35
[6]; [16]
  Soybean plant response rating: 35
[6]; [17]
  Plant response rating, Soybean: 45
[7]; 16 g ai/ha
  Plant response rating (scale 0 to 100), Nutsedge, Yellow: 5
[7]; [15]
  Nutsedge, Yellow plant response rating: 5
[7]; [16]
  Nutsedge, Yellow plant response rating: 10
[7]; [17]
  Plant response rating, Nutsedge, Yellow: 5
[8]
  Ducksalad plant response rating: 90
[9]
  Sedge, Umbrella plant response rating: 85
[10]
  Rice plant response rating: 0
[11]
  Barnyardgrass plant response rating: 40
[12]; 16 g ai/ha
  Plant response rating (scale 0 to 100), Kochia: 90
[12]
  Kochia plant response rating: 95
[12]; 62 g ai/ha
  Plant response rating, Kochia: 100
[12]; 125 g ai/ha
  Plant response rating, Kochia: 100
[13]; 16 g ai/ha
  Plant response rating (scale 0 to 100), Oat, Wild: 0
[13]; [15]
  Oat, Wild plant response rating: 0
[13]; [16]
  Oat, Wild plant response rating: 5
[13]; [17]
  Plant response rating, Oat, Wild: 5
[14]; 16 g ai/ha
  Plant response rating (scale 0 to 100), Chickweed: 50
[14]
  Chickweed plant response rating: 50
[14]; 62 g ai/ha
  Plant response rating, Chickweed: 60
[14]; 125 g ai/ha
  Plant response rating, Chickweed: 80
